Measurements from PubChem BioAssay AID192 (DTP/NCI, 2004).
“And” between values parts separate entries of the source, which are not always exact repeats. Identical values can stand only once. Inconclusive results and toxic doses are left out. How the source made its calls: active means survival T/C of 150% or more; inactive means T/C below 125% in these data.

System: BDF1 mice, B16 melanoma ip, median survival T/C
Test: NCI In Vivo Anticancer Drug Screen. Data for tumor model B16 Melanoma (intraperitoneal) in B6D2F1 (BDF1) mice
Details: endpoint: median survival time, higher = longer survival
Summary of the method: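 Compounds were tested in mice carrying transplantable tumors. Survival or tumor size was recorded, and each value is the treated-group measurement (T) divided by that of the vehicle-treated control group (C).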

[1] = dose: 100.0 mg/kg/injection, schedule: Q01DX009 (ip), vehicle: Klucel (hydroxypropylcellulose) (HPC)
[2] = dose: 200.0 mg/kg/injection, schedule: Q01DX009 (ip), vehicle: Klucel (hydroxypropylcellulose) (HPC)
[3] = dose: 400.0 mg/kg/injection, schedule: Q01DX009 (ip), vehicle: Klucel (hydroxypropylcellulose) (HPC)
[4] = dose: 25.0 mg/kg/injection, schedule: Q01DX009 (ip), vehicle: Klucel (hydroxypropylcellulose) (HPC)
[5] = dose: 50.0 mg/kg/injection, schedule: Q01DX009 (ip), vehicle: Klucel (hydroxypropylcellulose) (HPC)
[6] = dose: 50.0 mg/kg/injection, schedule: Q01DX009 (ip), vehicle: saline with Tween-80
[7] = dose: 100.0 mg/kg/injection, schedule: Q01DX009 (ip), vehicle: saline with Tween-80
[8] = dose: 12.5 mg/kg/injection, schedule: Q01DX009 (ip), vehicle: Klucel (hydroxypropylcellulose) (HPC)
[9] = dose: 25.0 mg/kg/injection, schedule: Q01DX009 (ip), vehicle: saline with Tween-80
[10] = dose: 25.0 mg/kg/injection, schedule: Q01DX009 (ip), vehicle: saline
[11] = dose: 50.0 mg/kg/injection, schedule: Q01DX009 (ip), vehicle: saline

Measured: T/C

CCCCCCCC(O)CCCC (configuration not stated)
inactive: [1] 92 % of control | [2] 98 % of control | [3] 86 % of control

NC(=O)NO
inactive: dose: 37.5 mg/kg/injection, schedule: Q03HX024 (ip), vehicle: saline 95 % of control and 100 % of control | dose: 75.0 mg/kg/injection, schedule: Q03HX024 (ip), vehicle: saline 95 % of control | dose: 150.0 mg/kg/injection, schedule: Q01DX009 (ip), vehicle: water 95 % of control | dose: 150.0 mg/kg/injection, schedule: Q01DX017 (ip), vehicle: water 93 % of control | dose: 150.0 mg/kg/injection, schedule: Q## X009 (ip), vehicle: water 95 % of control | dose: 300.0 mg/kg/injection, schedule: Q01DX009 (ip), vehicle: water 100 % of control | dose: 300.0 mg/kg/injection, schedule: Q01DX017 (ip), vehicle: water 97 % of control | dose: 300.0 mg/kg/injection, schedule: Q## X009 (ip), vehicle: water 93 % of control | dose: 600.0 mg/kg/injection, schedule: Q## X009 (ip), vehicle: water 100 % of control | dose: 2400.0 mg/kg/injection, schedule: Q01DX001 (ip), vehicle: water 100 % of control

CC(C)C(NC(=O)OC(C)(C)C)C(=O)O (configuration not stated)
inactive: [4] 123 % of control | [5] 101 % of control

C[C@]12CC[C@@H]3c4ccc(O)cc4CC[C@H]3[C@@H]1C[C@@H](O)[C@@H]2O
inactive: [5] 102 % of control | [1] 100 % of control | [2] 90 % of control

Nc1ncnc2nc[nH]c12
inactive: dose: 32.0 mg/kg/injection, schedule: Q01DX009 (ip), vehicle: Klucel (hydroxypropylcellulose) (HPC) 97 % of control | dose: 64.0 mg/kg/injection, schedule: Q01DX009 (ip), vehicle: Klucel (hydroxypropylcellulose) (HPC) 98 % of control | dose: 64.0 mg/kg/injection, schedule: Q01DX009 (ip), vehicle: saline with Tween-80 98 % of control | dose: 128.0 mg/kg/injection, schedule: Q01DX009 (ip), vehicle: Klucel (hydroxypropylcellulose) (HPC) 89 % of control

CCc1cc(Cc2cc(CC)cc(C(C)(C)C)c2O)c(O)c(C(C)(C)C)c1
inactive: [1] 88 % of control | [2] 88 % of control | [3] 89 % of control

CCOC(=O)C(Cc1ccc(O)cc1)Nc1nc2ccccc2o1 (configuration not stated)
inactive: [6] 103 % of control | [7] 106 % of control | dose: 200.0 mg/kg/injection, schedule: Q01DX009 (ip), vehicle: saline with Tween-80 106 % of control | dose: 400.0 mg/kg/injection, schedule: Q01DX009 (ip), vehicle: saline with Tween-80 96 % of control

C/C=C(\Cl)C1=CC(=O)C23CC2C2(C)COC1(O)C3(O)O2 (configuration not stated)
inactive: dose: 0.75 mg/kg/injection, schedule: Q01DX009 (ip), vehicle: saline with Tween-80 91 % of control

CCN(CC)CCCC(C)Nc1ccnc(/C=C/c2ccc(Cl)cc2)c1 (configuration not stated)
inactive: [8] 86 % of control | dose: 18.75 mg/kg/injection, schedule: Q04DX003 (ip), vehicle: saline 86 % of control | [4] 92 % of control | dose: 37.5 mg/kg/injection, schedule: Q04DX003 (ip), vehicle: saline 93 % of control | dose: 75.0 mg/kg/injection, schedule: Q04DX003 (ip), vehicle: saline 89 % of control

O=C(O)C1CC2C3CC(C(=O)O)C(C3)C2C1 (configuration not stated)
inactive: dose: 100.0 mg/kg/injection, schedule: Q04DX003 (ip), vehicle: saline 108 % of control | dose: 200.0 mg/kg/injection, schedule: Q04DX003 (ip), vehicle: saline 104 % of control | dose: 400.0 mg/kg/injection, schedule: Q04DX003 (ip), vehicle: saline 105 % of control

O=[N+]([O-])c1ccc(S(=O)(=O)N/N=C\c2ccc(Cl)c(Cl)c2)cc1
inactive: dose: 12.5 mg/kg/injection, schedule: Q01DX009 (ip), vehicle: saline with Tween-80 109 % of control | [9] 114 % of control | [6] 112 % of control

O=S(=O)(CCBr)CCBr
inactive: [9] 93 % of control | [6] 93 % of control | [7] 98 % of control

CC1=C2C(=O)c3ccccc3C2=C(C)S(=O)(=O)O1
inactive: dose: 50.0 mg/kg/injection, schedule: Q01DX009 (ip), vehicle: carboxymethylcellulose (CMC) 99 % of control | dose: 100.0 mg/kg/injection, schedule: Q01DX009 (ip), vehicle: carboxymethylcellulose (CMC) 87 % of control

CC(=O)C(N=Nc1ccccc1)C(C)=O
inactive: [4] 100 % of control | [5] 113 % of control | [1] 113 % of control

COc1ccccc1OCC(O)COC(N)=O (configuration not stated)
inactive: [4] 94 % of control | [5] 91 % of control | [1] 105 % of control | [2] 100 % of control | [3] 105 % of control

CCN(CC)CCNC1CCCCC1
inactive: [10] 102 % of control | [11] 112 % of control | dose: 100.0 mg/kg/injection, schedule: Q01DX009 (ip), vehicle: saline 98 % of control

CN1CCCN(C(c2ccccc2)c2ccc(Cl)cc2)CC1 (configuration not stated)
inactive: dose: 1.95 mg/kg/injection, schedule: Q01DX009 (ip), vehicle: saline 92 % of control | dose: 3.9 mg/kg/injection, schedule: Q01DX009 (ip), vehicle: saline 105 % of control | dose: 7.81 mg/kg/injection, schedule: Q01DX009 (ip), vehicle: saline 105 % of control | dose: 15.62 mg/kg/injection, schedule: Q01DX009 (ip), vehicle: saline 97 % of control | dose: 31.25 mg/kg/injection, schedule: Q01DX009 (ip), vehicle: saline 94 % of control

[I][Hg][CH2]C1OCCOC1[CH2][Hg][I] (configuration not stated)
inactive: dose: 6.25 mg/kg/injection, schedule: Q01DX009 (ip), vehicle: Klucel (hydroxypropylcellulose) (HPC) 100 % of control | [8] 101 % of control | [4] 106 % of control | [5] 107 % of control | [1] 105 % of control | [2] 95 % of control

C=C1C(=O)OC2C=C(C)C3C(O)CC(C)(O)C3CC12 (configuration not stated)
inactive: [1] 88 % of control

NNC(=O)c1ccccc1
inactive: dose: 12.5 mg/kg/injection, schedule: Q01DX009 (ip), vehicle: saline 105 % of control | [10] 97 % of control | [11] 88 % of control

O=[N+]([O-])c1cccs1
inactive: dose: 25.0 mg/kg/injection, schedule: Q04DX003 (ip), vehicle: Klucel (hydroxypropylcellulose) (HPC) 105 % of control | dose: 50.0 mg/kg/injection, schedule: Q04DX003 (ip), vehicle: Klucel (hydroxypropylcellulose) (HPC) 105 % of control | dose: 100.0 mg/kg/injection, schedule: Q04DX003 (ip), vehicle: Klucel (hydroxypropylcellulose) (HPC) 112 % of control

CCOC(=O)C1=NN(c2ccccc2)C(=O)C1
inactive: [1] 97 % of control | [2] 97 % of control | [3] 97 % of control

CCOC(=O)CNC(=O)CCCCSc1ncnc2nc[nH]c12
inactive: dose: 20.0 mg/kg/injection, schedule: Q01DX009 (ip), vehicle: Klucel (hydroxypropylcellulose) (HPC) 88 % of control | dose: 40.0 mg/kg/injection, schedule: Q01DX009 (ip), vehicle: Klucel (hydroxypropylcellulose) (HPC) 91 % of control | dose: 80.0 mg/kg/injection, schedule: Q01DX009 (ip), vehicle: Klucel (hydroxypropylcellulose) (HPC) 89 % of control | dose: 160.0 mg/kg/injection, schedule: Q01DX009 (ip), vehicle: Klucel (hydroxypropylcellulose) (HPC) 89 % of control | dose: 320.0 mg/kg/injection, schedule: Q01DX009 (ip), vehicle: Klucel (hydroxypropylcellulose) (HPC) 87 % of control

CCOC(=O)C(CC(C)C)NC(=O)C(Cc1ccc(N(CCCl)CCCl)cc1)NC(C)=O (configuration not stated)
inactive: dose: 1.0 mg/kg/injection, schedule: Q01DX009 (ip), vehicle: saline with Tween-80 106 % of control | dose: 2.0 mg/kg/injection, schedule: Q01DX009 (ip), vehicle: saline with Tween-80 113 % of control | dose: 4.0 mg/kg/injection, schedule: Q01DX009 (ip), vehicle: saline with Tween-80 106 % of control | dose: 8.0 mg/kg/injection, schedule: Q01DX009 (ip), vehicle: saline with Tween-80 119 % of control | dose: 8.0 mg/kg/injection, schedule: Q01DX009 (ip), vehicle: saline 105 % of control | dose: 16.0 mg/kg/injection, schedule: Q01DX009 (ip), vehicle: saline 116 % of control

C1CCC(OB2OB(OC3CCCCC3)OB(OC3CCCCC3)O2)CC1
inactive: dose: 50.0 mg/kg/injection, schedule: Q01DX009 (ip), vehicle: other 103 % of control | dose: 100.0 mg/kg/injection, schedule: Q01DX009 (ip), vehicle: other 93 % of control | dose: 200.0 mg/kg/injection, schedule: Q01DX009 (ip), vehicle: other 102 % of control
